Columns and labels:
[1] = system: Jurkat (leukaemia); test: apoptotic DNA fragmentation by DNA gel electrophoresis; type: cell-based, human
Procedure: The DNA fragmentation was determined by means of DNA gel electrophoresis. Jurkat (leukaemia) was used as the tumour cell line.
Apoptotic DNA fragments were isolated by means of lysis with NP 40. The cells were washed and pelleted after 4 hours or after 24 hours, respectively. The cell pellet was incubated for 10 sec. with lysis buffer (1% NP 40, Sigma; 20 mM EDTA, Sigma; 50 mM Tris-HCl, Sigma). the lysates were mixed with 1% SDS (Sigma), incubated at 56° C. for 2 h with RNase (5 μg/μl) (Boehringer), and digested with proteinase K (Sigma) (2.5 μg/μl) for 2 h at 37° C. After 10 M ammonium acetate had been added, the DNA was precipitated with 100% ethanol at −20° C. and analysed by means of gel electrophoresis on 1% agarose gels.

[2] = system: HaCaT cells; test: proliferation of keratinocytes, 3H-thymidine incorporation; type: cell-based, human
[3] = system: epidermal cells (EC) and T cells (TC); test: MECLR in vitro, EC or TC preincubated with hyperforin; conditions: FIG. 9
Procedure: The roof of the blister was dissected out under sterile conditions using a scalpel and a suspension of epidermal cells (EC) was prepared by treating with trypsin. […] After that, the cells were washed and 50,000 EC were cocultured for 6 days (37° C., 5% CO2) with 150,000 TC (T cells) in 1640 RPMI containing 10% foetal calf serum (FCS) containing 1% penicillin-streptomycin in 96-well flat-bottomed microtitre plates (Greiner). 1 μCurie of ^3H-thymidine (Amersham) was then added per well and, after 18 h, the incorporated radioactivity was measured in a scintillation counter (Canberra Packard). The radioactivity which is measured is proportional to the replication of the DNA in the cells.

[4] = system: T cells; test: proliferation of T cells; type: cell-based
[5] = system: keratinocytes (HaCaT); test: induction of apoptosis in keratinocytes; type: cell-based
[6] = system: T cells; test: induction of apoptosis in T cells; type: cell-based

CC(C)=CCC[C@]1(C)[C@@H](CC=C(C)C)CC2(CC=C(C)C)C(=O)C(CC=C(C)C)=C(O)C1(C(=O)C(C)C)C2=O (stereo partly shown) [hyperforin]
apoptotic DNA fragmentation ([1]; 40 μM, 4 hours): ++ | apoptotic DNA fragmentation ([1]; 40 μM, 24 hours): ++ | speed of apoptosis induction compared with taxol ([1]; hyperforin 40 μM vs taxol 10 μM, fully developed after only 4 hours): induces apoptosis in tumour cells more rapidly than does taxol | concentration from which a proliferation-inhibiting effect is seen ([2]; human keratinocytes): ≥ 100 ng/mL | proliferation of HaCaT cells ([2]; hyperforin 100 μg/ml, 24 h, FIG. 6): virtually completely inhibited | proliferation in MECLR ([3]; EC incubated 24 h with 24 μg of hyperforin/ml): significantly inhibits proliferation | proliferation in MECLR ([3]; TC incubated 24 h with 24 μg of hyperforin/ml): significantly inhibits proliferation

Cc1cc(O)c2c(=O)c3c(O)cc(O)c4c5c(O)cc(O)c6c(=O)c7c(O)cc(C)c8c1c2c(c34)c(c78)c65 [hypericin]
effect on proliferation of keratinocytes (HaCaT) [2]: proliferation-inhibiting effect | effect on proliferation of T cells [4]: proliferation-inhibiting effect | induction of apoptosis [5]: can induce apoptasis | induction of apoptosis [6]: can induce apoptasis

CC(=O)O[C@H]1C(=O)[C@@]2(C)[C@H]([C@H](OC(=O)c3ccccc3)[C@]3(O)C[C@H](OC(=O)[C@H](O)[C@@H](NC(=O)c4ccccc4)c4ccccc4)C(C)=C1C3(C)C)[C@]1(OC(C)=O)CO[C@@H]1C[C@@H]2O [taxol, reference compound]
apoptotic DNA fragmentation ([1]; 10 μM, 4 hours): + | apoptotic DNA fragmentation ([1]; 10 μM, 24 hours): ++

Source: patent US7179495B1 (Universitaetsklinikum Freiburg, priority 1998, dated 2007)
